In experiment [1] the test system is Pseudomonas aeruginosa. Description: microbe, parasite or virus in culture. To be noted: ATCC 27853, 18 h, ASSAY_TEST Inhibition of Bacterial Growth, detection method Absorption (OD600), MEDIA CAMHB, plate type 384well, NBS, CORNING #3640.
Description: Antibacterial activity against Pseudomonas aeruginosa ATCC 27853 (CO-ADD:GN_042); MIC in CAMBH media using NBS plates, by OD(600)
In experiment [2] the test system is Pseudomonas aeruginosa. The experiment is described as follows: Antibacterial activity against Pseudomonas aeruginosa PAO397 [PAO1 d(mexAB-oprM) d(mexCD-oprJ) d(mexEF-oprN) d(mexJKL) d(mexXY) d(opmH)] (CO-ADD:GN_211); MIC in CAMBH media using NBS plates, by OD(600). The format is functional. As to conditions: ASSAY_TEST Inhibition of Bacterial Growth, detection method Absorption (OD600), MEDIA CAMHB, plate type 384well, CORNING #3640, time 18 hr.

For experiment [3], the system named is Acinetobacter baumannii. Description: microbe, parasite or virus in culture. To be noted: ATCC 19606, 18 h, ASSAY_TEST Inhibition of Bacterial Growth, detection method Absorption (OD600), MEDIA CAMHB, plate type 384well, NBS, CORNING #3640.
Description: Antibacterial activity against Acinetobacter baumannii ATCC 19606 (CO-ADD:GN_034); MIC in CAMBH media using NBS plates, by OD600

Each structure is given as a SMILES string. Values after ≈ are worked out from the molar mass of the structure shown. Where only a bound is given, the exact number is not on record here.

`Cc1cccc(OCC(O)Cn2ccnc2C)c1` (centres undefined): the MIC in experiment [1], in experiment [2] and in experiment [3] was over 300 µM in each case.
On to `O=C(c1cnsn1)N1CCN(c2ccccn2)CC1`, for which the MIC in experiment [1], in experiment [2] and in experiment [3] was over 300 µM in each case.
With `Cc1c(C(=O)NC2=NCCS2)oc2ccccc12`, the MIC in experiment [1], in experiment [2] and in experiment [3] was over 300 µM in each case.
As to `CCc1c(C)nc2sc(C(N)=O)c(N)c2c1C`, the MIC in experiment [1], in experiment [2] and in experiment [3] was over 300 µM throughout.
As for `Nc1ccnc(-c2ccccc2)c1`, the MIC in experiment [1], in experiment [2] and in experiment [3] was over 300 µM in each case.
As to `NCC(O)c1ccc(-c2ccccc2)cc1` (centres undefined), the MIC in experiment [1], in experiment [2] and in experiment [3] was over 300 µM each time.
As to `NCCNc1ccc2ccccc2n1`, the MIC in experiment [1], in experiment [2] and in experiment [3] was over 300 µM throughout.
Consider `NCc1cccc(-c2ccccn2)n1`, for which the MIC in experiment [1] is 300 µM (≈ 55.6 µg/mL); in experiment [2] it was 200 µM (≈ 37 µg/mL); in experiment [3], over 300 µM.
Taken in the same sequence, the figures for `O=C(c1c(O)cccc1F)N1CCc2cnccc21` were over 300 µM, over 300 µM and over 300 µM.
Consider `Cc1ccc(C(=O)N2CCN(c3nccs3)CC2)o1`, for which the MIC in experiment [1], in experiment [2] and in experiment [3] was over 300 µM in each case.
Consider `COc1ccc(OC)c(NC(=O)c2ccccn2)c1`, for which the MIC in experiment [1], in experiment [2] and in experiment [3] was over 300 µM in each case.
Regarding `Nc1cnccc1N1CCCCC1`, the MIC in experiment [1], in experiment [2] and in experiment [3] was over 300 µM in each case.
`Cc1cc(NC(C)CO)nc2ccccc12` (centres undefined): the MIC in experiment [1], in experiment [2] and in experiment [3] was over 300 µM throughout.
Turning to `CCCOc1ccc(CN)cc1`, the MIC in experiment [1], in experiment [2] and in experiment [3] was over 300 µM in each case.
Take `CC1COC2(CCN(C(=O)c3ccc(Cl)s3)CC2)O1` (centres undefined): the MIC in experiment [1], in experiment [2] and in experiment [3] was over 300 µM in each case.
On to `NC(=O)CSc1nc(-c2ccc(Br)cc2)c[nH]1`, for which the figures for the MIC in experiment [1], in experiment [2] and in experiment [3] were over 300 µM, 300 µM (≈ 93.7 µg/mL) and over 300 µM, respectively.
With `CCc1cccc(S(=O)(=O)N2CCC(NC)C2)c1` (centres undefined), the MIC in experiment [1], in experiment [2] and in experiment [3] was over 300 µM throughout.
On to `FC(F)Oc1cccc(N2CCNCC2)c1`, for which the MIC in experiment [1], in experiment [2] and in experiment [3] was over 300 µM each time.
In the case of `Cc1cccc(C(=O)Nc2ncc(C)s2)n1`, the MIC in experiment [1], in experiment [2] and in experiment [3] was over 300 µM throughout.
As to `NCc1cnn(-c2ccc(Cl)cc2)c1`, the MIC in experiment [1], in experiment [2] and in experiment [3] was over 300 µM each time.
`OCCNCCNCc1ccc(-c2cccc(Cl)c2)o1`: the MIC in experiment [1], in experiment [2] and in experiment [3] was over 300 µM in each case.
`Cc1ccc(C2(O)CCNC2)cc1` (centres undefined): the MIC was 300 µM (≈ 53.2 µg/mL) in experiment [1], over 300 µM in experiment [2] and over 300 µM in experiment [3].
With `CCc1cccc2c1OCCC2N` (centres undefined), the MIC in experiment [1], in experiment [2] and in experiment [3] was over 300 µM throughout.
Consider `CC[C@H](CO)Nc1ccnc2cc(Br)cnc12`, for which the MIC in experiment [1], in experiment [2] and in experiment [3] was over 300 µM each time.
On to `O=C(NCCO)Nc1nc2ccccc2s1`, for which the MIC in experiment [1], in experiment [2] and in experiment [3] was over 300 µM throughout.
Take `OCCNCCNCc1ccc(-c2ccccc2Cl)o1`: the MIC in experiment [1], in experiment [2] and in experiment [3] was over 300 µM in each case.
As to `NCCNS(=O)(=O)c1ccc(-c2ccccc2)cc1`, the MIC in experiment [1], in experiment [2] and in experiment [3] was over 300 µM in each case.
Take `c1ccc(N2CCN(c3ncccn3)CC2)nc1`: the MIC in experiment [1], in experiment [2] and in experiment [3] was over 300 µM in each case.
As for `Cc1ccncc1NC1CS(=O)(=O)c2ccccc21` (centres undefined), the MIC in experiment [1], in experiment [2] and in experiment [3] was over 300 µM each time.
Turning to `O=C(CSCCO)Nc1ncc(-c2ccccc2)s1`, the MIC in experiment [1] is over 300 µM; in experiment [2] it was 200 µM (≈ 58.9 µg/mL); in experiment [3], over 300 µM.
For the molecule `Cn1c(CN)nc2cc(Cl)ccc21`, the MIC in experiment [1], in experiment [2] and in experiment [3] was over 300 µM in each case.
With `CN1CCCC1CCSc1nc(N)c(C#N)cc1C#N` (centres undefined), the MIC in experiment [1], in experiment [2] and in experiment [3] was over 300 µM each time.
Regarding `COc1c(C(=O)N2CCOCC2)sc2ccc(F)cc12`, the MIC in experiment [1], in experiment [2] and in experiment [3] was over 300 µM throughout.
For the molecule `CC(CO)NC(=O)Nc1nc(-c2ccccc2)ns1` (centres undefined), the MIC in experiment [1] was over 300 µM; in experiment [2], 200 µM (≈ 55.7 µg/mL); in experiment [3], over 300 µM.
In the case of `Cc1cc(C(=O)Nc2ccc3c(c2)CCN3)n(C)n1`, the MIC in experiment [1], in experiment [2] and in experiment [3] was over 300 µM throughout.
On to `CNC(=O)CCCNC(=O)Nc1nc2ccccc2s1`, for which the MIC in experiment [1], in experiment [2] and in experiment [3] was over 300 µM each time.
On to `OC1(Cn2ccnn2)CCCNC1` (centres undefined), for which the MIC in experiment [1], in experiment [2] and in experiment [3] was over 300 µM throughout.
For `O=C1NC(Cc2ccccc2)C(=O)Nc2ccccc21` (centres undefined), the MIC in experiment [1], in experiment [2] and in experiment [3] was over 300 µM throughout.
Turning to `C1CCC(C2CCNCC2)OC1` (centres undefined), the MIC in experiment [1], in experiment [2] and in experiment [3] was over 300 µM throughout.
Turning to `Cc1ccc(OC(C)CN)cc1` (centres undefined), the MIC in experiment [1], in experiment [2] and in experiment [3] was over 300 µM in each case.
As to `NS(=O)(=O)NCC1CCN(c2cccc(Br)c2)C1` (centres undefined), the MIC in experiment [1], in experiment [2] and in experiment [3] was over 300 µM in each case.
`CS(=O)(=O)CCNc1ccnc2ccc(Br)cc12`: the MIC in experiment [1], in experiment [2] and in experiment [3] was over 300 µM each time.
With `CN(C)c1nc(Cl)c(CN)s1`, the results for the MIC in experiment [1], in experiment [2] and in experiment [3] were 200 µM (≈ 38.3 µg/mL), 200 µM (≈ 38.3 µg/mL) and over 300 µM, respectively.
Regarding `Cc1c[nH]c2ccccc2c1=N`, the MIC in experiment [1], in experiment [2] and in experiment [3] was over 300 µM each time.
For `CC(N)c1nc(-c2ccc(Br)cc2)c[nH]1` (centres undefined), the MIC in experiment [1], in experiment [2] and in experiment [3] was over 300 µM each time.
On to `NCc1cccc(-c2nccs2)c1`, for which the MIC in experiment [1], in experiment [2] and in experiment [3] was over 300 µM throughout.
With `NC(=O)C1CCN(Cc2ccc(Br)c3cccnc23)C1` (centres undefined), the MIC in experiment [1], in experiment [2] and in experiment [3] was over 300 µM in each case.
On to `COc1ccc(F)c(N2CCNCC2)c1`, for which the MIC in experiment [1], in experiment [2] and in experiment [3] was over 300 µM each time.
`CCC1Oc2c(Cl)cccc2NC1=O` (centres undefined): the MIC in experiment [1], in experiment [2] and in experiment [3] was over 300 µM throughout.
In the case of `CCOc1nnc(CN2CCC(C(N)=O)CC2)s1`, the MIC in experiment [1], in experiment [2] and in experiment [3] was over 300 µM throughout.
Regarding `COC(CN)CC(C)C` (centres undefined), the MIC in experiment [1], in experiment [2] and in experiment [3] was over 300 µM throughout.
Turning to `CC(O)CN1C(=O)C=CC1=O` (centres undefined), the MIC in experiment [1], in experiment [2] and in experiment [3] was over 300 µM each time.
Take `NCc1cnn(-c2ccc(Br)cc2)c1`: the MIC in experiment [1], in experiment [2] and in experiment [3] was over 300 µM each time.
`COc1ncccc1-c1csc(NCCSC)n1`: the MIC in experiment [1], in experiment [2] and in experiment [3] was over 300 µM throughout.
As to `CNCCC1CCN(c2ccncc2)CC1`, the MIC in experiment [1], in experiment [2] and in experiment [3] was over 300 µM each time.
Consider `CNc1nnc(-c2ccccc2)s1`, for which the MIC in experiment [1], in experiment [2] and in experiment [3] was over 300 µM in each case.
For the molecule `COc1cccc2c(N)c(C)cnc12`, the MIC in experiment [1], in experiment [2] and in experiment [3] was over 300 µM each time.
As for `Cn1cc(NC(=O)c2ccc(Br)s2)cc1C(N)=O`, the MIC in experiment [1], in experiment [2] and in experiment [3] was over 300 µM each time.
As for `CC(C)C(=O)c1cnccc1N`, the MIC in experiment [1], in experiment [2] and in experiment [3] was over 300 µM throughout.
`CC(CSc1n[nH]c(-c2ccccn2)n1)CS(C)(=O)=O` (centres undefined): the MIC in experiment [1], in experiment [2] and in experiment [3] was over 300 µM each time.
For the molecule `CCN1CCN(c2cc(C#N)ccn2)CC1`, the MIC in experiment [1], in experiment [2] and in experiment [3] was over 300 µM in each case.
As to `O=C1c2ccccc2OCC1CN1CCOCC1` (centres undefined), the MIC in experiment [1], in experiment [2] and in experiment [3] was over 300 µM each time.
Consider `Cc1cccc(NC(C)c2ccc(S(N)(=O)=O)cc2)n1` (centres undefined), for which the MIC in experiment [1], in experiment [2] and in experiment [3] was over 300 µM in each case.
